The numbers were not newly measured in patent publication US9598354B2, “Fumarate compounds, pharmaceutical compositions thereof, and methods of use” (priority 2015, dated 2017), which cites them from elsewhere.

For the molecule `COC(=O)/C=C/C(=O)OC` [DMF, dimethylfumarate], the aqueous solubility entry was “poor”.
